Assay results from patent US6596772B1, “Phosphate mimics and methods of treatment using phosphatase inhibitors” (Sugen, Inc., priority 1999, dated 2003).
Where two headings read alike, the source gives them in different places.

Columns and labels:
Experiment in all cases: PTP IC50 assay, pNPP or FDP as substrate
Format in all cases: biochemical
PTP MEG2 = molecular target: T1, PTP MEG2 (Homo sapiens, UniProt P43378)
T1 construct: made in house; host or cells: E. coli BL-21 (pGEX 6P-1)
T1 sequence (P43378 262-593 limits assumed): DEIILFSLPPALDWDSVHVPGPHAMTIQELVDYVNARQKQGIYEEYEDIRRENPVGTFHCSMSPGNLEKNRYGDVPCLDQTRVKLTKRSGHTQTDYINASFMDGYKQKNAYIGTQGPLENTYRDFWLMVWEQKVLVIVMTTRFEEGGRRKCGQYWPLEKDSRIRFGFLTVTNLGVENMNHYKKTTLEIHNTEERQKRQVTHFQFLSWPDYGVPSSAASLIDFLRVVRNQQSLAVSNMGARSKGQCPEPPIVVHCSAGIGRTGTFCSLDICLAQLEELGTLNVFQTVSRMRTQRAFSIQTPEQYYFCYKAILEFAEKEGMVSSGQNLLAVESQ
Protocol: (§1) The following in vitro assay procedure is preferred to determine the level of activity and effect of the different compounds of the present invention on one or more of the PTPs. Similar assays can be designed along the same lines for any PTP using techniques well known in the art.
(§2) The catalytic assays described herein are performed in a 96-well format. The general procedure begins with the determination of PTP optimal pH using a three-component buffer system that minimizes ionic strength variations across a wide range of buffer pH. Next, the Michaelis-Menten constant, or Km, is determined for each specific substrate-PTP system. This Km value is subsequently used as the substrate reaction concentration for compound screening. Finally, the test PTP is exposed to varying concentrations of compound for fifteen minutes and allowed to react with substrate for ten minutes. The results are plotted as percent inhibition versus compound concentration and the IC50 interpolated from the plot.
(§3) All assays were performed using pNPP or FDP as substrate. The optimum pH was determined for each PTP used.
(§4) PTPase activity was assayed at 25° C. in a 100-μl reaction mixture containing an appropriate concentration of pNPP or FDP as substrate. The reaction was initiated by addition of the PTP and quenched after 10 min by addition of 50 μl of IN NaOH. The non-enzymatic hydrolysis of the substrate was corrected by measuring the control without the addition of the enzyme. The amount of p-nitrophenol produced was determined from the absorbance at 410 nm. To determine the kinetic parameter, Km, the initial velocities were measured at various substrate concentrations and the data were fitted to the Michaelis equation where velocity=(Vmax*[S])/(Km+[S]), and [S]=substrate reaction concentration.
(§5) The effect of the compounds on PTP was evaluated at 25° C. using pNPP or FDP as substrate. PTP was pre-incubated for fifteen minutes with various concentrations of compound. Substrate was then added at a fixed concentration (usually equal to the Km previously calculated). After 10 minutes, NaOH was added to stop the reaction. The hydrolysis of pNPP was followed at 410 nm on the Biotek Powerwave 200 microplate scanning spectrophotometer. The percent inhibition was calculated as follows: Percent Inhibition=[(control signal−compound signal)/control signal] ×100%. The IC50 was then determined by interpolation of a percent inhibition versus compound concentration plot.
(§6) Plasmids designed for bacterial GST-PTP fusion protein expression were derived by insertion of PCR-generated human PTP fragments into pGEX vectors (Pharmacia Biotech). Several of these constructs were then used to subclone phosphatases into pFastBac-1for expression in Sf-9 insect cells. Oligonucleotides used for the initial amplification of PTP genes are shown below. The cDNAs were prepared using the Gilbo BRL superscript preamplification system on RNAs purchased from Clontech.
The PTP MEG2 cDNA was amplified from human placenta single strand cDNA (Clontech RNA) using the following oligonucleotides: 5′oligo: 5′-[…]-3′ (SEQ ID NO: 8) 3′oligo: 5′-[…]-3′ (SEQ ID NO: 9) and subsequently ligated into pGex 6P-1 Eco RI/Xho I sites.

PTP EPSILON = molecular target: T2, PTP EPSILON (Homo sapiens, UniProt P23469)
T2 construct: made in house; host or cells: Sf-9 insect cells (pFastBac-G2T); a pGEX 6P-1 construct also existed
T2 sequence (P23469 80-393 limits assumed): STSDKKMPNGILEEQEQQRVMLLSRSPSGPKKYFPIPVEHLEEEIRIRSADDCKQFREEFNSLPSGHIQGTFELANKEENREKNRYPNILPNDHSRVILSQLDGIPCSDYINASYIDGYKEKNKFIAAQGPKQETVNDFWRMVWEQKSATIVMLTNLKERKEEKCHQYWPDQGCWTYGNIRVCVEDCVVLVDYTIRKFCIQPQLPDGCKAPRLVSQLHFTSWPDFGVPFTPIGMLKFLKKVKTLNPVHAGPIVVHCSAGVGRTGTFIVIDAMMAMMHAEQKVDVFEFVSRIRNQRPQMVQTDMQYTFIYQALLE
Protocol: as §1, §2, §3, §4, §5, §6
The PTPepsilon cDNA was amplified from human placenta single-strand cDNA (Clontech RNA) using the following oligonucleotides: 5′oligo: 5′-[…]-3′ (SEQ ID NO: 6) 3′oligo: 5′-[…]-3′ (SEQ ID NO: 7) After cloning this PCR product into the Bam HI/Xho I sites of pGEX 6P-1, this phosphatase was subcloned using the same restriction sites in pFastBac-G2T.

PTP MU = molecular target: T3, PTP MU (Homo sapiens, UniProt P28827)
T3 construct: made in house; host or cells: E. coli BL-21 (pGEX 6P-1)
T3 sequence (P28827 831-1186 limits assumed): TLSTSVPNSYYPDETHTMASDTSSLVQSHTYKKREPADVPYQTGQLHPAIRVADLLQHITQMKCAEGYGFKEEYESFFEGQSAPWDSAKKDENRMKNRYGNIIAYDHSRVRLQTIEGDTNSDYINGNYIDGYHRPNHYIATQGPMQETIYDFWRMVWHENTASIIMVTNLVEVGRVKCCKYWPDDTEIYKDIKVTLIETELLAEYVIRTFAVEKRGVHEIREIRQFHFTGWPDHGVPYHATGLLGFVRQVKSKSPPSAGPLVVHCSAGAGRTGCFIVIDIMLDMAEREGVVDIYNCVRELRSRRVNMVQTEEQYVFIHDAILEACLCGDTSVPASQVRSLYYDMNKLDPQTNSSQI
Protocol: as §1, §2, §3, §4, §5, §6
The PTP Mu cDNA was amplified from a human lung cDNA library (Clontech) using the following oligonucleotides; 5′oligo: 5′-[…]-3′ (SEQ ID NO: 18) 3′oligo: 5′-[…]-3′ (SEQ ID NO: 19) It was subsequently ligated into the Eco RI/Xho I sites of pGEX 6P-1.

PTP SIGMA = molecular target: T4, PTP SIGMA (Homo sapiens, UniProt Q13332)
T4 construct: made in house; host or cells: E. coli BL-21 (pGEX 6P-1)
T4 sequence (Q13332 1320-1660 limits assumed): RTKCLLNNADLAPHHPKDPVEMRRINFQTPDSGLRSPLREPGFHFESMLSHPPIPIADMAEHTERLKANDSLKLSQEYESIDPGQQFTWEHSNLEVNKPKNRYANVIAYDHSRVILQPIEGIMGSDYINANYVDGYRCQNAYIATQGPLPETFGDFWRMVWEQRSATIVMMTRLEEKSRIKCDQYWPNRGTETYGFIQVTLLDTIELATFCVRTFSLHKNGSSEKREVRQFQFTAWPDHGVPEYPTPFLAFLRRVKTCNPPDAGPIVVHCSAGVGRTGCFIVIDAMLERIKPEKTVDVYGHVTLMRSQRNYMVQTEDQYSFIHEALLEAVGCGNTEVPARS
Protocol: as §1, §2, §3, §4, §5, §6
The PTP Sigma cDNA was amplified from human brain single strand cDNA (Clontech RNA) using the following oligonucleotides: 5′oligo: 5′-[…]-3′ (SEQ ID NO: 12) 3′oligo: 5′-[…]-3′ (SEQ ID NO: 13) and subsequently ligated into pGex 6P-1 Eco RI/Xho I sites.

[1] = pNPP or FDP as substrate, 25° C., read-out: PTP IC50 MEG2
[2] = pNPP or FDP as substrate, 25° C., read-out: PTP IC50 Epilson
[3] = pNPP or FDP as substrate, 25° C., read-out: PTP IC50 Mu
[4] = pNPP or FDP as substrate, 25° C., read-out: PTP IC50 Sigma

## 1-(4-Aminophenoxy)-4-trifluoromethylsulfonamidophenoxy benzene [Example 72]
PTP MEG2; [1]
  IC50: > 100 µM
PTP EPSILON; [2]
  IC50: 48.3 µM
PTP MU; [3]
  IC50: > 100 µM
PTP SIGMA; [4]
  IC50: 41.1 µM

## O=[N+]([O-])c1cc(S(=O)(=O)C(F)(F)F)ccc1OC1CCC(Oc2ccc(S(=O)(=O)C(F)(F)F)cc2[N+](=O)[O-])C1 (mixture of isomers) [Example 12, 1,3-Bis-(2-nitro-4-trifluoromethanesulfonyl-phenoxy)-cyclopentane]
PTP MEG2; [1]
  IC50: > 100 µM
PTP EPSILON; [2]
  IC50: > 100 µM
PTP MU; [3]
  IC50: > 100 µM
PTP SIGMA; [4]
  IC50: 91.7 µM

## CS(=O)(=O)Nc1ccc(Oc2ccc(Oc3ccc(NS(C)(=O)=O)cc3)cc2)cc1 [CH3SO2NH—]
PTP MEG2; comparison of R groups, read-out: IC50 MEG2
  IC50: > 100 µM
PTP EPSILON; comparison of R groups, read-out: IC50 Epsilon
  IC50: 51.4 µM
PTP MU; comparison of R groups, read-out: IC50 Mu
  IC50: > 100 µM
PTP SIGMA; comparison of R groups, read-out: IC50 Sigma
  IC50: 22 µM

## O=[N+]([O-])c1cc(S(=O)(=O)C(F)(F)F)ccc1SSc1ccc(S(=O)(=O)C(F)(F)F)cc1[N+](=O)[O-] [Example 8, Bis-(2-nitro-4-trifluoromethylsulfonylphenyl) disulfide]
PTP MEG2; [1]
  IC50: > 100 µM
PTP EPSILON; [2]
  IC50: 53.7 µM
PTP MU; [3]
  IC50: > 100 µM
PTP SIGMA; [4]
  IC50: 27.7 µM

## COC(=O)c1cc(Oc2ccc(S(=O)(=O)C(F)(F)F)cc2)cc(Oc2ccc(S(=O)(=O)C(F)(F)F)cc2)c1 [Example 9, 3,5-Bis-(4-trifluoromethanesulfonyl-phenoxy)-benzoic acid methyl ester]
PTP MEG2; [1]
  IC50: > 100 µM
PTP EPSILON; [2]
  IC50: > 100 µM
PTP MU; [3]
  IC50: > 100 µM
PTP SIGMA; [4]
  IC50: 49.9 µM

## COC(=O)Cc1cc(Oc2ccc(S(=O)(=O)C(F)(F)F)cc2[N+](=O)[O-])cc(Oc2ccc(S(=O)(=O)C(F)(F)F)cc2[N+](=O)[O-])c1 [Example 10, [3,5-Bis-(2-nitro-4-trifluoromethanesulfonyl-phenoxy)-phenyl]-acetic acid methyl ester]
PTP MEG2; [1]
  IC50: > 100 µM
PTP EPSILON; [2]
  IC50: 60.8 µM
PTP MU; [3]
  IC50: > 100 µM
PTP SIGMA; [4]
  IC50: 33.8 µM

## COC(=O)c1cc(Oc2ccc(S(=O)(=O)C(F)(F)F)cc2[N+](=O)[O-])cc(Oc2ccc(S(=O)(=O)C(F)(F)F)cc2[N+](=O)[O-])c1 [Example 11, 3,5-Bis-(2-nitro-4-trifluoromethanesulfonyl-phenoxy)-benzoic acid methyl ester]
PTP MEG2; [1]
  IC50: > 100 µM
PTP EPSILON; [2]
  IC50: 38.7 µM
PTP MU; [3]
  IC50: > 100 µM
PTP SIGMA; [4]
  IC50: 24.1 µM

## COC(=O)c1c(Oc2ccc(S(=O)(=O)C(F)(F)F)cc2[N+](=O)[O-])cc(C)cc1Oc1ccc(S(=O)(=O)C(F)(F)F)cc1[N+](=O)[O-] [Example 13, 4-Methyl-2,6-bis-(2-nitro-4-trifluoromethanesulfonyl-phenoxy)-benzoic acid methyl ester]
PTP MEG2; [1]
  IC50: > 100 µM
PTP EPSILON; [2]
  IC50: 80.4 µM
PTP MU; [3]
  IC50: 76 µM
PTP SIGMA; [4]
  IC50: 84.5 µM

## COC(=O)c1ccc(OCCOc2ccc(S(=O)(=O)C(F)(F)F)cc2[N+](=O)[O-])cc1 [Example 14, 4-[2-(2-nitro-4-trifluoromethanesulfonyl-phenoxy)-ethoxy]-benzoic acid methyl ester]
PTP MEG2; [1]
  IC50: > 100 µM
PTP EPSILON; [2]
  IC50: > 100 µM
PTP MU; [3]
  IC50: > 100 µM
PTP SIGMA; [4]
  IC50: 6.75 µM

## O=C(O)c1ccc(Oc2cccc(Oc3ccc(S(=O)(=O)C(F)(F)F)cc3[N+](=O)[O-])c2)cc1 [Example 15, 4-[3-(2-Nitro-4-trifluoromethanesulfonyl-phenoxy)-phenoxy]-benzoic acid]
PTP MEG2; [1]
  IC50: 21.1 µM
PTP EPSILON; [2]
  IC50: 10 µM
PTP MU; [3]
  IC50: 15.5 µM
PTP SIGMA; [4]
  IC50: 11.7 µM

## COC(=O)c1cc(Oc2ccc(S(=O)(=O)C(F)(F)F)cc2[N+](=O)[O-])n(-c2cc(C(F)(F)F)cc(C(F)(F)F)c2)n1 [Example 16, 1-(3,5-Bis-trifluoromethyl-phenyl)-5-(2-nitro-4-trifluoromethanesulfonyl-phenoxy)-1H-pyrazole-3-carboxylic acid methyl ester]
PTP MEG2; [1]
  IC50: 79.5 µM
PTP EPSILON; [2]
  IC50: 64.7 µM
PTP MU; [3]
  IC50: > 100 µM
PTP SIGMA; [4]
  IC50: 29.4 µM

## CCOC(=O)COc1ccc(S(=O)(=O)c2ccc(Oc3ccc(S(=O)(=O)C(F)(F)F)cc3[N+](=O)[O-])cc2)cc1 [Example 17, {4-[4-(2-Nitro-4-trifluoromethanesulfonyl-phenoxy)-benzenesulfonyl]-phenoxy}-acetic acid ethyl ester]
PTP MEG2; [1]
  IC50: 88.5 µM
PTP EPSILON; [2]
  IC50: > 100 µM
PTP MU; [3]
  IC50: > 100 µM
PTP SIGMA; [4]
  IC50: > 100 µM

## O=C(O)c1ccc(Oc2cccc(Oc3ccc(S(=O)(=O)C(F)(F)F)cc3)c2)cc1 [Example 18, 4-[3-(4-Trifluoromethanesulfonyl-phenoxy)-phenoxy]-benzoic acid]
PTP MEG2; [1]
  IC50: 44 µM
PTP EPSILON; [2]
  IC50: 0.77 µM
PTP MU; [3]
  IC50: 21.6 µM
PTP SIGMA; [4]
  IC50: 22.1 µM

## CCOC(=O)COc1ccc(S(=O)(=O)c2ccc(Oc3ccc(S(=O)(=O)C(F)(F)F)cc3)cc2)cc1 [Example 19, {4-[4-(4-trifluoromethanesulfonyl-phenoxy)-benzenesulfonyl]-phenoxy}-acetic acid ethyl ester]
PTP MEG2; [1]
  IC50: 52.2 µM
PTP EPSILON; [2]
  IC50: 31.4 µM
PTP MU; [3]
  IC50: 69.5 µM
PTP SIGMA; [4]
  IC50: 93.3 µM

## O=C(Cc1ccccc1CC(=O)Nc1cccc(S(=O)(=O)C(F)(F)F)c1)Nc1cccc(S(=O)(=O)C(F)(F)F)c1 [Example 20, N-(3-Trifluoromethanesulfonyl-phenyl)-2-{2-[(3-trifluoromethanesulfonyl-phenylcarbamoyl)-methyl]-phenyl}-acetamide]
PTP MEG2; [1]
  IC50: > 100 µM
PTP EPSILON; [2]
  IC50: 7.5 µM
PTP MU; [3]
  IC50: 37.9 µM
PTP SIGMA; [4]
  IC50: 22.9 µM

## O=C(Cc1cccc(CC(=O)Nc2cccc(S(=O)(=O)C(F)(F)F)c2)c1)Nc1cccc(S(=O)(=O)C(F)(F)F)c1 [Example 21, N-(3-Trifluoromethanesulfonyl-phenyl)-2-{3-[(3-trifluoromethanesulfonyl-phenylcarbamoyl)-methyl]-phenyl}-acetamide]
PTP MEG2; [1]
  IC50: 49.4 µM
PTP EPSILON; [2]
  IC50: 57.8 µM
PTP MU; [3]
  IC50: 47.7 µM
PTP SIGMA; [4]
  IC50: 21.1 µM
